Experimental data taken from a melting point compilation (Tetko et al.; mined from patent text by program, amines drawn as free bases though some values may be those of a salt).

`CC(C)(O)C1CCN(c2ccc(C#N)c3ccccc23)CC1` showed a melting point of 133 to 134 °C.
Work on `CN1CCC(C2(O)c3ccccc3C=Cn3ccnc32)CC1` (stereo not given) yielded a melting point of 155 °C.
`O=C1Nc2ccccc2Oc2ncccc21` showed a melting point of 250 to 253 °C.
For `O=C(O)CCNCCn1nc(-c2c(-c3ccccc3)nn3ccccc23)ccc1=O`, the melting point was 230 to 232 °C.
For `O=c1cc(N2CCOCC2)cc(-c2ccccc2)o1`, the melting point was 161 to 162 °C.
Work on `COc1ccc(C(=O)NC(=O)Nc2cc3c(cc2F)/C(=C/c2[nH]c(C)c(CCC(=O)O)c2C)C(=O)N3)c(F)c1` yielded a melting point greater than 300 °C.
`CCCCOc1ccc(C(=O)c2cccc(C(=O)O)c2)c(O)c1` showed a melting point of 175 °C.
`O=C(O)c1cn(-c2cc(O)c(F)cc2[N+](=O)[O-])c2c(Cl)c(F)c(F)cc2c1=O` gave a melting point of 248 to 255 °C.
`O=C(O)C1CCCN1S(=O)(=O)c1ccc(-c2ccccc2)cc1` (stereo not given) showed a melting point of 133 to 135 °C.
`CN1CCN(c2nc3cccccc-3n2)CC1` showed a melting point of 93 to 95 °C.
Compound `COc1ccc(C[C@H](NC(=O)OCc2ccccc2)[C@H]2CO2)cc1` has a melting point of 86 to 87 °C.
`N#CC=C1OC(=O)c2ccccc21` gave a melting point of 178 to 180 °C.
`c1cn2c(n1)-c1sccc1-n1cnc(-c3nc(C4CC4)no3)c1C2` showed a melting point of 231 to 233 °C.
`CC1(C)[C@@H](CS(=O)(=O)c2ccc(S(C)(=O)=O)cc2)CC[C@@]1(C)NCC(=O)N1CCC[C@H]1C#N` gave a melting point of 162 to 166 °C.
`O=C(O)CNC(=O)c1nc2ccc(OCC(F)(F)C(F)(F)C(F)(F)C(F)F)cc2cc1O` gave a melting point of 170 to 172 °C.
In the case of `O=C(N1CC2CC(C1)c1ccccc12)C(F)(F)F`, the melting point is reported as 67 to 68 °C.
Compound `N#Cc1ccc(OCCCOc2ccc(-c3cc4cc(C#N)ccc4o3)cc2)cc1` has a melting point of 188 to 189 °C.
In the case of `NC(=O)C(=C1CSc2ccccc2N1)c1ccc(Cl)cc1`, the melting point is reported as 188 to 191 °C.
In the case of `Cc1cccc2c(Cl)cc(C(F)(Cl)Cl)nc12`, the melting point is reported as 90 to 94 °C.
Compound `CCCCCCCCCCCCCCC[C@@H](O)C(Cl)C(=O)OC` (stereo not given in full) has a melting point of 39 to 40 °C.
In the case of `COc1ccc(-c2c([N+](=O)[O-])cnc3ccc(Cl)cc23)cc1OC`, the melting point is reported as 188 to 190 °C.
Work on `COc1cc(C(C)C)c2c(c1)S(=O)(=O)N(CCl)C2=O` yielded a melting point of 151 to 152 °C.
With `Cc1cc(C)c(C(=O)ON2C(C)(C)c3ccccc3C2(C)C)c(C)c1` the melting point was 181 to 183 °C.
In the case of `CCOC(=O)C(F)(F)c1ccc(NC(=O)c2ccc3c(c2)C(C)(C)CCC3(C)C)cc1`, the melting point is reported as 183 °C.
With `OC(CN1CCC(c2noc3cc(F)ccc23)CC1)CN1CCCc2ccccc21` (stereo not given) the melting point was 170 to 171 °C.
In the case of `S=C1CCNc2ccccc2N1`, the melting point is reported as 154 to 157 °C.
With `N#Cc1cc2cc(Br)ccc2nc1Cl` the melting point was 228 to 230 °C.
For `COCNC(=O)NC(=O)C(C#N)=NOC`, the melting point was 164 to 165 °C.
Compound `CCCc1ccc(-c2ccn([C@H](CC(=O)O)C(=O)N[C@H](C(=O)NC)C(C)(C)C)c2)cc1` has a melting point of 104 to 106 °C.
`CS(=O)(=O)Nc1cc2c(cc1Oc1ccccc1)CCO2` gave a melting point of 133 °C.
`C#CCN=c1sc2cc(OC(F)(F)F)ccc2n1CC(=O)c1ccc(C)cc1` gave a melting point of 98 to 100 °C.
Work on `Cc1ccnc(NC(=O)C2CC2)c1[N+](=O)[O-]` yielded a melting point of 179 °C.
For `N#CC=Cc1cccc(Cl)c1F`, the melting point was 90 to 92 °C.
With `CCOC(=O)c1cnc2nn(C)cc2c1NC(C)CC` (stereo not given) the melting point was 132 to 134 °C.
Work on `COc1cccc(-c2cn(C)cc(-c3cccc(C(F)(F)F)c3)c2=O)c1OC` yielded a melting point of 153 to 155 °C.
For `CCCCOS(C)(=O)=O`, the melting point was 100 to 101 °C.
`COc1ccc(CNc2nc(N(C)CCO)ncc2C(=O)c2cc(OC)c(OC)c(OC)c2)cc1Cl` gave a melting point of 166 to 168 °C.
For `CCCCc1c(C(=O)OCC)[nH]c2c(Br)cccc2c1=O`, the melting point was 88 °C.
Compound `COc1ccccc1NC(=O)Nc1nc(Cl)nc(N(CCC(=O)O)Cc2cccc(C)c2)n1` has a melting point of 205 °C.
`CN1CCN(C(=N)Nc2ccccc2-c2cccc(F)c2)CC1` gave a melting point of 117 to 118 °C.
`CCCCCCCCCCCCCCOCCCSCCCO` gave a melting point of 38 to 41 °C.
Compound `C(#Cc1ccc2[nH]ccc2c1)CCN1CC=C(c2ccccc2)CC1` has a melting point of 173 to 174 °C.
For `CN(c1ccccc1)S(=O)(=O)N[C@@H](Cc1ccc(NC(=O)c2c(Cl)cccc2Cl)cc1)C(=O)O`, the melting point was 117 °C.
In the case of `CC(=O)c1cc(CN2CCNC2=O)ccc1O`, the melting point is reported as 131 to 133 °C.
For `COc1cccc2c1nc(C(F)F)n2-c1nc(Nc2cncnc2)nc(N2CCOCC2)n1`, the melting point was 293 to 295 °C.
In the case of `OC(Cc1cnc(-c2c(F)cccc2F)nn1)c1ccc(Cl)cc1` (stereo not given), the melting point is reported as 98 to 102 °C.
Compound `CC12CC(=O)C3C(CCC4CC(O)CCC43C)C1CCC2C#N` (stereo not given) has a melting point of 190 to 192 °C.
For `O=C(NCC1CC1)c1ccc(-c2ccc3nnn(Cc4ccc5ncccc5c4)c3n2)cc1F`, the melting point was 120 to 122 °C.
`CCCCCCCc1ccc(C(=O)c2cccc(C(=O)O)c2)cc1` showed a melting point of 124 to 126 °C.
Work on `Oc1ncnc2[nH]c(-c3ccccc3)cc12` yielded a melting point greater than 300 °C.
For `CN(C)c1ccc(C(c2ccc(N(C)C)cc2)c2ccc(N(C)C)cc2C(=O)O)cc1`, the melting point was 210 to 212 °C.
`COc1ccc(Nc2nc(NC3CCCCCC3)nc(N3CCCC3)n2)cc1F` showed a melting point of 79 °C.
Compound `Cc1ccc(S(=O)(=O)N(C)CC(=O)N2CCC[C@H]2C=O)cc1` has a melting point of 111 °C.
With `CC(C)(C)OC(=O)N1[C@@H](C2CC2)[C@H](C(=O)O)OC1(C)C` the melting point was 104 to 108 °C.
`CN(C1CCN(CC(C)(C)O)CC1)S(=O)(=O)c1ccc(Nc2nccc(Nc3ccc(F)cc3)n2)cc1` gave a melting point of 216 to 217 °C.
For `O=C(Oc1c(F)c(F)c(F)c(F)c1F)c1ccccn1`, the melting point was 62 to 64 °C.
`CN(C)S(=O)(=O)c1cccc(Cl)c1S(N)(=O)=O` showed a melting point of 171 to 182 °C.
Work on `CSc1ccc(C=O)cc1OC(C)C` yielded a melting point of 50 to 54 °C.
`Nc1nc(Cl)cc(NCC2(CO)COC2)n1` showed a melting point of 185 to 186 °C.
Compound `O=C(O)c1cn(C2CC2)c2c(Cl)c(N3CC4CCCC3CN4)c(F)cc2c1=O` (stereo not given) has a melting point of 217 to 220 °C.
Work on `COc1ccc(-c2nc(COc3cccc(N)c3)c(C)o2)cc1` yielded a melting point of 132 to 134 °C.
`CC1(C)CCC(C)(C)c2cc([N+](=O)[O-])c([N+](=O)[O-])cc21` gave a melting point of 200 °C.
`Cc1cccc(C)c1-n1c(C)nnc1S` showed a melting point of 189 to 192 °C.
Compound `CCOC(=O)c1c(C(F)(F)F)nc(C(F)F)c(C(=O)OC)c1Cl` has a melting point of 24 to 25 °C.
In the case of `CCOC(=O)CCCCC(=O)c1[nH]c(=O)[nH]c1C`, the melting point is reported as 170 to 172 °C.
Compound `COC(=O)c1cc(-c2cccc(Cl)c2)sc1N` has a melting point of 85 to 87 °C.
Work on `CC(C)(C)C(NC(=O)c1ccc(-c2ccco2)cc1)NC(=NC#N)Nc1cccnc1` (stereo not given) yielded a melting point of 181 to 182 °C.
For `NCc1ccn(-c2cc3[nH]c(=O)c(=O)[nH]c3cc2[N+](=O)[O-])c1`, the melting point was greater than 300 °C.
In the case of `CCCC(=O)c1cc2c(OCC)cc(C(=O)OCC)nc2cc1C`, the melting point is reported as 123 to 124 °C.
`CNCc1cnc(Nc2n[nH]c3ccc(-c4ncccc4Cl)cc23)s1` showed a melting point of 200 to 201 °C.
Work on `CS(=O)(=O)c1ccc(-c2cnn(-c3cccc(Cl)c3)c(=O)c2Cl)cc1` yielded a melting point of 203 to 204 °C.
In the case of `NC(=O)c1ncn2c(=O)n(Cc3ccccc3)nnc12`, the melting point is reported as 187 to 188 °C.
Work on `O=C(Nc1ccc(OC(F)F)cc1)N1N=C(c2ccc(Cl)cc2)CC1c1ccc(Cl)cc1` (stereo not given) yielded a melting point of 174 °C.
`CC(C)(C)CC(C)(C)c1ccc(OCCOCCO)c(O)c1` gave a melting point of 112 to 113 °C.
In the case of `CCN1CCN(c2c(F)c(N)c3c(=O)c(C(=O)O)cn(C4CC4)c3c2F)CC1`, the melting point is reported as 236 to 237 °C.
Work on `CCC(=O)NCCC1=CCc2cc(Br)c(OC)cc21` yielded a melting point of 106 to 109 °C.
`Fc1ccc(-c2cc(N3CCN(c4ccc(F)cc4)CC3)nc3c2CCCCCC3)cc1` showed a melting point of 130 to 131 °C.
In the case of `O=C(Nc1nnc(CC2CC2)o1)C(c1ccccc1)c1ccccc1`, the melting point is reported as 158 to 159 °C.
`CC1CCN(C2=Nc3cc(Br)ccc3N3CCc4cccc2c43)CC1` gave a melting point of 177 to 179 °C.
Compound `CC(=C1SCCS1)c1ccc(F)cc1` has a melting point of 27 to 31 °C.
With `COC(=O)C(C)(C)OCc1oc(-c2ccc(Cl)cc2)nc1C` the melting point was 88 to 90 °C.
`CC(C)OCC(O)CN1CCC2(CC1)CSC1=C(O2)c2ccccc2C(=O)C1=O` (stereo not given) showed a melting point of 97 to 99 °C.
With `OCc1c(C(F)(F)F)nn(-c2ccccc2)c1OC(F)F` the melting point was 57 to 59 °C.
With `CCS(=O)(=O)CC=Cc1ccccc1` the melting point was 100 °C.
Work on `N#Cc1ccc(-c2cn(-c3ccc(I)cc3)c(SCCO)n2)cc1` yielded a melting point of 148 to 172 °C.
`CCOc1ccc2[nH]cc(CC(C)(C(=O)OC)[N+](=O)[O-])c2c1` (racemic) showed a melting point of 80 to 82 °C.
For `O=C(O)Cc1cccc(Sc2ccccc2Cl)c1O`, the melting point was 91 to 93 °C.
Compound `CCOC(NC(=O)c1cccc(Cl)c1)C(N)=S` (stereo not given) has a melting point of 136 to 137 °C.
`CCOC(=O)N1CCCSC1=C(C(C)=O)[N+](=O)[O-]` showed a melting point of 52 to 54 °C.
For `CC(=O)n1cc(Cl)c(-c2cccc(Cl)c2Cl)c1`, the melting point was 97 °C.
With `Nc1c(C(=O)c2cccc(S(N)(=O)=O)c2)[nH]c2cc(Cl)ccc12` the melting point was 125 to 127 °C.
With `COc1ccc(C(C#N)C(C)C)cc1OC` (stereo not given) the melting point was 45.5 to 49 °C.
In the case of `CCn1nc(-c2ccc(F)cc2)c(-c2ccncc2)c1C(=O)N(C)Cc1ccccn1`, the melting point is reported as 144 to 147 °C.
For `COc1cc2c(c(Cl)c1Cl)C(=O)C(C)C2` (stereo not given), the melting point was 129 °C.
`CCOc1ccc2c(c1)CC2C#N` (stereo not given) showed a melting point of 50 to 52 °C.
`N#Cc1c(F)cccc1Nc1ccccc1` showed a melting point of 97 to 99 °C.
With `O=C(O)CS(=O)(=O)CCCCCCn1nc(-c2ccccc2)c(-c2ccccc2)c1-c1ccccc1` the melting point was 154 to 155 °C.
For `Clc1ccc2oc(CBr)cc2c1`, the melting point was 70 °C.
Compound `N#Cc1c(N2CCN(C(=O)c3c[nH]cn3)CC2)c2ccccc2n(Cc2ccc(F)cc2)c1=O` has a melting point of 176 to 183 °C.
In the case of `CCCc1c(OCCCCCC(=O)NCCc2cccnc2)ccc(C(C)=O)c1O`, the melting point is reported as 76 to 78 °C.
`COc1ccn2nc(-c3ccccc3F)c(-c3ccc(=O)n(C)n3)c2c1` gave a melting point of 220 to 222 °C.
For `CNc1cc(NS(=O)(=O)c2ccc(N)cc2)cc(C)n1`, the melting point was 173 to 175 °C.
`CNC1C(O)CC2C3CCC4CC(OC(C)=O)CCC4(C)C3CCC21C` (stereo not given) showed a melting point of 197 to 199 °C.
Compound `CCOC(=O)C(=CNc1ccc2nccnc2c1)C(=O)OCC` has a melting point of 112 to 114 °C.
For `Cc1cc2c(c(C)c1C)OCC2`, the melting point was less than 50 °C.
